Measured values published in patent US20250127790A1, “COMBINATION THERAPY USING VPS34 INHIBITORS” (Deciphera Pharmaceuticals, LLC, priority 2021, published 2025).

Columns and labels:
[1] = tested on: Renca renal cell carcinoma cells; experiment: IncuCyte live-cell imaging, cell confluence, Renca cells; format: cell-based; conditions: 2 μM Compound 1, ADU-S100, up to 72 hours
Experimental: Renca cells were treated with a combination of DMSO or 2 μM Compound 1 alone or in combination with STING agonist ADU-S100 for 24 hours. Treatment with 1 μM staurosporine was used as a positive control for apoptosis induction. To assess cell proliferation, 1000 cells/well were plated in 96-well plates. After 24 h, cells were treated with compounds in 100 μL complete medium. Phase-contrast images (10×) were acquired every 3 h for 24-72 h and cell confluence (%) was calculated using the IncuCyte S3 live-cell analysis system (Sartorius). For monitoring apoptosis, 5 μM of IncuCyte Caspase-3/7 Green Dye (#4440, Sartorius) was added to the medium at the time of treatment. Both phase-contrast and green fluorescent images were captured. Caspase 3/7 induction was calculated by counting green fluorescent objects per mm^2 and dividing it by the percentage of cell confluency.

[2] = tested on: THP-1 dual reporter cells; experiment: THP-1 dual reporter assay (ISRE and NF-κB promoter activity); format: cell-based, human; conditions: 5 μg/mL ADU-S100, 2 μM Compound 1 or 2, overnight
Experimental: THP1-Dual™ Cells lines were purchased from InvivoGen (WT (thpd-nfis) and STING-KO (thpd-kostg)) and cultured as recommended by manufacturer: in RPMI media (Gibco 22400-071) supplemented with 10% heat-inactivated Fetal Bovine Serum (FBS) (Gibco A38400-02) and 1× Pen-Strep-Glutamine (Gibco 10378-016). Cells were treated with selective antibiotic every other passage using 100 μg/ml Normocin™ (InvivoGen ant-nr-1), 10 μg/ml of blasticidin (InvivoGen ant-bl-05) and 100 μg/ml of Zeocin™ (InvivoGen ant-zn-05). THP1-Dual™ Cells (wild-type or STING-KO) were seeded at 1.5×10^5 cells/well in 96-well plates. Cells were treated with DMSO, 5 μg/mL ADU-S100, 2 μM Compound 1 or 2 or the combinations overnight. The next day, 10 μL of the media from the treated cells were mixed with 50 μL of QUANTI-Luc™ Gold (Invivogen rep-qlcg2) in a white 96-well plate (Thermo Scientific 9502887) to measure the interferon-sensitive response element (ISRE) promoter activity through Luciferase signal using a plate reader. For measuring NF-κB promoter activity, 10 μL of the media from the treated cells were mixed with 90 μL of QUANTI-Blue™ (Invivogen rep-qbs3) in white-96-well plates (Corning-Costar 3610), then incubated at 37° C. for one hour. The signal was then measured using a plate reader with detection at 640 nm wavelength.

[3] = tested on: THP-1 dual reporter cells; experiment: Cytokine secretion in wild-type and STING knockout THP-1 dual reporter cells; format: cell-based, human; conditions: wild-type THP-1 dual reporter cells
A-498 cells = experiment: Western blot, STAT1 phosphorylation in A-498 cells; format: cell-based, human
Experimental: A-498 cells were seeded at 1.5×10^5 cells/well in 6-well plates and cultured overnight. Cells were treated with 10 μg/mL mouse monoclonal antibody to human interferon α/β receptor chain 2 (α-IFNAR2) (clone: MMHAR-2, #21385-1, PBL Assay Science) or 10 μg/mL mouse IgG2a isotype control antibody (clone: eBM2a, #16-4724-81, Thermo Fisher Scientific). After 1 h, DMSO or 2 μM Compound 1 was added and cells were incubated for another 24 h. […] A-498 cells were washed in PBS and lysed in RIPA buffer (50 mM Tris HCl pH=7.4, 150 mM NaCl, 1% Triton X-100, 0.5% Na-deoxycholate, 0.1% SDS) containing protease inhibitor cocktail (#11836170001, Roche), and phosphatase inhibitor (#11836170001, Roche) for 10 min at 4° C. After centrifugation at 15000 rpm for 10 min at 4° C., the supernatant was obtained, and protein concentration was quantified using BCA assay (#23225, Thermo Fisher). Equal amounts were mixed with 0.1 M DTT and LDS Sample Buffer (#84788, Thermo Fisher), heated for 5 min at 90° C. before loading onto 4-12% Bis-Tris gels. Proteins were transferred to nitrocellulose membranes. Membranes were blocked in 5% non-fat dry milk in TBS with 0.05% Tween (TBS-T) for 1 h at RT, washed in TBS-T, and probed with primary antibodies shaking overnight at 4° C. After washing in TBS-T, membranes were incubated with IRDye 800CW goat anti-rabbit or IRDye 680RD donkey anti-mouse IgG (H+L) (#926-32211 and #926-68072, respectively, LI-COR, 1:10,000 dilution) secondary antibody in Intercept blocking buffer (#927-60001, LI-COR) for 1 h at RT. After washing in TBS-T, membranes were imaged using the Odyssey CLx (LI-COR). Band intensities were quantified using Image Studio Lite software version 5.2.5 (LI-COR).

[4] = tested on: A-498 renal cell carcinoma cells; experiment: qRT-PCR with siRNA knockdown of STING pathway genes, A-498 cells; format: cell-based, Human; conditions: 24 h; for increase in mRNA expression of CCL5 / increase in mRNA expression of CXCL10 / increase in mRNA expression of IFNB1 / increase in mRNA expression of IRF7 / IFNB1, IRF7, CCL5 and CXCL10 expression with siRNA knockdown of CGAS / IFNB1, IRF7, CCL5 and CXCL10 expression with siRNA knockdown of STING: 2 μM; for IFNB1, IRF7, CCL5 and CXCL10 expression with siRNA knockdown of CGAS: siCGAS; for IFNB1, IRF7, CCL5 and CXCL10 expression with siRNA knockdown of CGAS / IFNB1, IRF7, CCL5 and CXCL10 expression with siRNA knockdown of STING / IFNB1, IRF7, CCL5 or CXCL10 expression with siRNA knockdown of TBK1: vs compound alone; for IFNB1, IRF7, CCL5 and CXCL10 expression with siRNA knockdown of STING: siSTING; for IFNB1, IRF7, CCL5 or CXCL10 expression with siRNA knockdown of TBK1: siTBK1, 2 μM
Experimental: A-498 cells were grown in Minimal Essential Medium containing 10% fetal bovine serum. Cells were then incubated for 2 days at 37 degrees Celsius, 5% CO2, and 95% humidity. A498 cells were transfected with scrambled siRNA control (siSCR) or siRNA targeting TBK1 (siTBK1), STING (siSTING) or CGAS (siCGAS). After 48 h cells were treated with DMSO or 2 μM of VPS34 inhibitor (Compound 1 or Compound 2) for 24 h. Cells were washed with PBS and RNA was isolated using the PureLink RNA kit (#12183018A, Thermo Fisher Scientific) according to the manufacturer's protocol. Genomic DNA was removed using DNA-binding columns (RNeasy plus kit, #74134, Qiagen) and/or DNase treatment (#12185010, Thermo Fisher Scientific). RNA was quantified using NanoDrop (Thermo Fisher Scientific) and 50 ng/μL RNA was used for cDNA synthesis with SuperScript IV VILO Master Mix (#11756050, Thermo Fisher Scientific). Quantitative RT-PCR (qRT-PCR) was run with diluted cDNA (1:25 or 1:12.5), PowerUp SYBR Green Master Mix (#A25741, Thermo Fisher Scientific), and 200 nM primers (see below) on a CFX Connect RT-PCR system (BioRad). Data was analyzed using the ΔΔCT method. Results are mean±SEM of three independent experiments.

Row | Structure (SMILES) | cell confluence [1] | ISRE activity (QUANTI-Luc) [2] | NFκB activity (QUANTI-Blue) [2] | secretion of CCL5 [3] | secretion of CXCL10 [3] | secretion of IFNβ [3] | phosphorylation of STAT1 (A-498 cells; 2 μM Compound 1, 24 h) | total levels of STAT1 (A-498 cells; 2 μM Compound 1, 24 h) | phosphorylation of STAT1 with addition of α-IFNAR2 (A-498 cells; 10 μg/mL α-IFNAR2 antibody 1 h before 2 μM Compound 1, 24 h) | increase in mRNA expression of CCL5 [4] [fold] | increase in mRNA expression of CXCL10 [4] [fold] | increase in mRNA expression of IFNB1 [4] [fold] | increase in mRNA expression of IRF7 [4] [fold] | IFNB1, IRF7, CCL5 and CXCL10 expression with siRNA knockdown of CGAS [4] | IFNB1, IRF7, CCL5 and CXCL10 expression with siRNA knockdown of STING [4] | IFNB1, IRF7, CCL5 or CXCL10 expression with siRNA knockdown of TBK1 [4]
1 | Nc1ncnc2c1ncn2[C@@H]1O[C@@H]2COP(=O)([S-])O[C@@H]3[C@H](O)[C@@H](COP([O-])(=S)O[C@H]2[C@H]1O)O[C@H]3n1cnc2c(N)ncnc21.[Na+].[Na+] (stereo partly drawn) [ADU-S100, reference compound] | no effect | stimulates | stimulates | stimulates | stimulates | stimulates |  |  |  |  |  |  |  |  |  | 
2 | C[C@@H]1COCCN1c1cc(N2CCCC[C@@H]2C(F)(F)F)[nH]c(=O)c1 [Compound 1, 4-((R)-3-methylmorpholino)-6-((R)-2-(trifluoromethyl)piperidin-1-yl)pyridin-2(1H)-one] | decreased |  |  |  |  |  | increased | did not alter | inhibited | > 4 | > 5 | > 5 | ~4 | complete ablation | complete ablation | moderate or negligible changes
3 | C[C@@H]1COCCN1c1cc(=O)n2c(n1)N(Cc1cncc(Cl)c1)[C@H](C(F)(F)F)CC2 [Compound 2, (S)-9-((5-chloropyridin-3-yl)methyl)-2-((R)-3-methylmorpholino)-8-(trifluoromethyl)-6,7,8,9-tetrahydro-4H-pyrimido[1,2-a]pyrimidin-4-one] |  |  |  |  |  |  |  |  |  | ~8 | ~10 | > 10 | ~7 | complete ablation | complete ablation | moderate or negligible changes
